{"source": "ChEMBL document CHEMBL5058646", "about": "(2022)", "key": {"[1]": {"molecular_target": "T1, Transcriptional regulator Kaiso (Homo sapiens) (UniProt Q86T24)", "T1 sequence (whole entry)": "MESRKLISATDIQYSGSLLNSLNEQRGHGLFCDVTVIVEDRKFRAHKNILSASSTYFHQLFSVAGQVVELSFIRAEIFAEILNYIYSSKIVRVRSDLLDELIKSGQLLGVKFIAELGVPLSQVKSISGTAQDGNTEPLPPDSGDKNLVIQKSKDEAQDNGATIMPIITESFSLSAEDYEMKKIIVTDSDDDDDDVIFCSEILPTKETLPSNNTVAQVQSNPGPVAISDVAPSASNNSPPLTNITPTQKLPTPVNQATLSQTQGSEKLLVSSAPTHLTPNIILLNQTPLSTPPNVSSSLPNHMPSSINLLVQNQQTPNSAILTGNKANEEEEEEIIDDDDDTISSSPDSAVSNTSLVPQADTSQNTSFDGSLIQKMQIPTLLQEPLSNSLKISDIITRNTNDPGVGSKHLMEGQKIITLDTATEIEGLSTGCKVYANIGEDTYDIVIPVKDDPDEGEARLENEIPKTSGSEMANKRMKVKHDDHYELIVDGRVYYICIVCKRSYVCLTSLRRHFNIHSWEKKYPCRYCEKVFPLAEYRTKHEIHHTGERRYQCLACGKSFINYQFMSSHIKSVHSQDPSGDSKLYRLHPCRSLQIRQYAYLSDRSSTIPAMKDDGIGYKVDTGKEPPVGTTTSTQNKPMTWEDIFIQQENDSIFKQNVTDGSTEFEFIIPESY", "conditions": "SUD4, Compound concentration 1.0 uM"}, "[2]": {"molecular_target": "T2, Sigma intracellular receptor 2 (Homo sapiens, UniProt Q5BJF2)", "T2 sequence (Q5BJF2 whole entry)": "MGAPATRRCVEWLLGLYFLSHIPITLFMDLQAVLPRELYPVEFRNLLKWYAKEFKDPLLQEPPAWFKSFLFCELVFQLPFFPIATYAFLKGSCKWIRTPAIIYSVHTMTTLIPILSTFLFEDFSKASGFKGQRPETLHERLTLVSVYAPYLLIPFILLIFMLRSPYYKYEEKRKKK", "experiment": "GPCRScan assay: inhibition of Sigma 2", "set-up": "radioligand conc. used [nm] 5.0, parental cells HEKT"}, "[3]": {"molecular_target": "T2, Sigma intracellular receptor 2", "conditions": "Compound concentration 10.0 uM"}, "Mu-type opioid receptor": {"molecular_target": "Mu-type opioid receptor (Homo sapiens, UniProt P35372)", "sequence (P35372 whole entry)": "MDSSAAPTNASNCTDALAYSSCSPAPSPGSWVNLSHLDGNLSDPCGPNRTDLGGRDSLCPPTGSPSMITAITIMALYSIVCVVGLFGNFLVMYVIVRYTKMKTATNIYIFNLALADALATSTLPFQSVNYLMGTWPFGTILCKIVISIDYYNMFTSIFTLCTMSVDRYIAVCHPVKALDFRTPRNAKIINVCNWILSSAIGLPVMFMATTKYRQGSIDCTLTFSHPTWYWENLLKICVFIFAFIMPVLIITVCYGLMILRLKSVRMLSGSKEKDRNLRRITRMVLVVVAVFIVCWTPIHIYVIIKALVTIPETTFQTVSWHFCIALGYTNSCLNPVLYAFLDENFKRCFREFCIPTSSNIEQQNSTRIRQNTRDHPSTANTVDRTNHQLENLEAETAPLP", "experiment": "GPCRScan assay: inhibition of MOR", "set-up": "radioligand conc. used [nm] 1.0 – 2.0, parental cells stable HEK"}, "[4]": {"molecular_target": "Ephrin type-A receptor 5 (Homo sapiens) (UniProt P54756)", "sequence (P54756 whole entry)": "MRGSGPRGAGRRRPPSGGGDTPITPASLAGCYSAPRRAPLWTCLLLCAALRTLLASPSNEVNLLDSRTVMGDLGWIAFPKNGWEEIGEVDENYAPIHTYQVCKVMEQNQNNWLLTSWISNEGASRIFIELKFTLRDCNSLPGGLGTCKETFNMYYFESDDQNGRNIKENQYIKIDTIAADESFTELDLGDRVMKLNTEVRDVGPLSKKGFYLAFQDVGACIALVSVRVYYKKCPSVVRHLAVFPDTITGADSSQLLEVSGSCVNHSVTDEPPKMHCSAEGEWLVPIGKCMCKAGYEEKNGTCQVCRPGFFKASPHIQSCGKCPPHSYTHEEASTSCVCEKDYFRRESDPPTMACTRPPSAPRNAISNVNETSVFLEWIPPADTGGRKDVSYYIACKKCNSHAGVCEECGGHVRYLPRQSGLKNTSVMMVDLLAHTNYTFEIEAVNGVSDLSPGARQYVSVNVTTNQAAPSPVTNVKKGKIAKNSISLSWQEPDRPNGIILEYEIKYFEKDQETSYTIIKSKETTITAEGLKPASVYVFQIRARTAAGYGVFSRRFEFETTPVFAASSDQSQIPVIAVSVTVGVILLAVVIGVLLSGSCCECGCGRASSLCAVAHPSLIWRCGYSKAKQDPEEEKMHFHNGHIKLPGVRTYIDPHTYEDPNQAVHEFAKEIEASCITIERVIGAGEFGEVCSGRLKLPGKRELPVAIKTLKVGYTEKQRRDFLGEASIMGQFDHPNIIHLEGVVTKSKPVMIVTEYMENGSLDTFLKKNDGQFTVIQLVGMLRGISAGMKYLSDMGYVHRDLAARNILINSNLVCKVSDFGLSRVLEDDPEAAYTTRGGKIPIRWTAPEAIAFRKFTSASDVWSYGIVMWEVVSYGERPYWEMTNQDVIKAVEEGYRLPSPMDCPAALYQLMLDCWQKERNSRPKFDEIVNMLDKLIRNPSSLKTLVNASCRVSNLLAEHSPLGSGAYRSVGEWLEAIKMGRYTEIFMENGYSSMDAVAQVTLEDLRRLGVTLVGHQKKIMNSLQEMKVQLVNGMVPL", "experiment": "EPHA5 SGC Tm panel (DSF)", "conditions": "Compound concentration 20.0 uM"}, "[5]": {"molecular_target": "Mitogen-activated protein kinase 8 (Homo sapiens) (UniProt P45983)", "experiment": "MAPK8 SGC Tm panel (DSF)", "conditions": "Compound concentration 20.0 uM"}, "[6]": {"molecular_target": "T3, Zinc finger and BTB domain-containing protein 1 (Homo sapiens) (UniProt Q9Y2K1)", "T3 sequence (whole entry)": "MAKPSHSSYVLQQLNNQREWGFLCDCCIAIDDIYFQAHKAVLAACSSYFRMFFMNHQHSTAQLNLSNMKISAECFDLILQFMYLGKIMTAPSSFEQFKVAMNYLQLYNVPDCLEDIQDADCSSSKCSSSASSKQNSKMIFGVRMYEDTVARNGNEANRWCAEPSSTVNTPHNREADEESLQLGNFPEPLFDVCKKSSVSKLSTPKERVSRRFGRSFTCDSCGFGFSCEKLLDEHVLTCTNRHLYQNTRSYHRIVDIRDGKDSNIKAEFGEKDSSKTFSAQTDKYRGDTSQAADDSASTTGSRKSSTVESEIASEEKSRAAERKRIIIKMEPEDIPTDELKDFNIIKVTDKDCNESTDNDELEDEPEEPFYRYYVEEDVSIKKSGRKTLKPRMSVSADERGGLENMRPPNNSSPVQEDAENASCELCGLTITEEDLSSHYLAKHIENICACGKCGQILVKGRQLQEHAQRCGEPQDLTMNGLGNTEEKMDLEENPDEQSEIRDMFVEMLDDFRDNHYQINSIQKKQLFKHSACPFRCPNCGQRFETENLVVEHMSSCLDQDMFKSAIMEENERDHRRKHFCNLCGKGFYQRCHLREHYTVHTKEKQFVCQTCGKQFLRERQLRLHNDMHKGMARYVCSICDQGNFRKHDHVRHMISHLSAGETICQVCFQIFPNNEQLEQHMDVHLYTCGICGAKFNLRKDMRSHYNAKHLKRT", "conditions": "SUD4, Compound concentration 1.0 uM"}, "[7]": {"molecular_target": "Serine/threonine-protein kinase B-raf (Homo sapiens) (UniProt P15056)", "experiment": "BRAF SGC Tm panel (DSF)", "conditions": "Compound concentration 20.0 uM"}, "[8]": {"molecular_target": "Muscarinic acetylcholine receptor M2 (Homo sapiens) (UniProt P08172)", "sequence (P08172 whole entry)": "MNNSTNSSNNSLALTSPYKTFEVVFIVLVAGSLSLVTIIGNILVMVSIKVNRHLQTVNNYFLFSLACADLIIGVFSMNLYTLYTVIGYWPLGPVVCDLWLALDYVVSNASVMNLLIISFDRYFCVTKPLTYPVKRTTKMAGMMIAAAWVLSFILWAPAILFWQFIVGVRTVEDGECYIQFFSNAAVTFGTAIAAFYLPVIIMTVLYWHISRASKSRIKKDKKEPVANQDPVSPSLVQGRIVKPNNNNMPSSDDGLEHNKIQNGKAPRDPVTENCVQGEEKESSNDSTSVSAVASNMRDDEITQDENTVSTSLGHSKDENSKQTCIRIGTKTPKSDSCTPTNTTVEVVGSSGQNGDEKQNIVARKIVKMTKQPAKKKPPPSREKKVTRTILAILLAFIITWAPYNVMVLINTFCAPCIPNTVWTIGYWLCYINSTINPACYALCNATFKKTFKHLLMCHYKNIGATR", "conditions": "Compound concentration 10.0 uM"}, "[9]": {"molecular_target": "T4, Zinc finger and BTB domain-containing protein 10 (Homo sapiens) (UniProt Q96DT7)", "T4 sequence (whole entry)": "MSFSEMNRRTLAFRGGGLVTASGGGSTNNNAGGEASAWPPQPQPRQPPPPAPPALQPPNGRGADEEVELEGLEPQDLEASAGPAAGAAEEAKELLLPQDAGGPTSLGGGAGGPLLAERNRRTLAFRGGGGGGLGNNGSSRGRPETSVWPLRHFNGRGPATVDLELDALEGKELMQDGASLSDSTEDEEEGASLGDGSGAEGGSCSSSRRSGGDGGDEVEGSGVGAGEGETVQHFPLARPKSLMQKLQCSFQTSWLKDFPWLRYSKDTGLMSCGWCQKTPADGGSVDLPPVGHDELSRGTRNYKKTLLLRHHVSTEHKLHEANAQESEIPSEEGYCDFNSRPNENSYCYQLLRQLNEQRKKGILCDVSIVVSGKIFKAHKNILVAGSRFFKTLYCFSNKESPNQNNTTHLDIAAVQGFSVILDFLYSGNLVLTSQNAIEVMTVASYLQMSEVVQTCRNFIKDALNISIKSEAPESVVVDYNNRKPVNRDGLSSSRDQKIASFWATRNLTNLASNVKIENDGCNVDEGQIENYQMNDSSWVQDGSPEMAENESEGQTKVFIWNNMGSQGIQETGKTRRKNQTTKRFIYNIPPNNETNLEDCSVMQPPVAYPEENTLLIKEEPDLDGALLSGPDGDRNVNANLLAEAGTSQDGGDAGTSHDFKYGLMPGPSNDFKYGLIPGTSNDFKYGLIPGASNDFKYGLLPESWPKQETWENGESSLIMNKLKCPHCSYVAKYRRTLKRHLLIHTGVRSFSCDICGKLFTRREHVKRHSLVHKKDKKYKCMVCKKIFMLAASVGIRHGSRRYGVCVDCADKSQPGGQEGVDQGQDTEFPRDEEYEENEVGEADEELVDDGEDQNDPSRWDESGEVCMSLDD", "conditions": "OCI-Ly1, Compound concentration 1.0 uM"}, "[10]": {"molecular_target": "Fibroblast growth factor receptor 1 (Homo sapiens) (UniProt P11362)", "sequence (P11362 22-822 limits assumed)": "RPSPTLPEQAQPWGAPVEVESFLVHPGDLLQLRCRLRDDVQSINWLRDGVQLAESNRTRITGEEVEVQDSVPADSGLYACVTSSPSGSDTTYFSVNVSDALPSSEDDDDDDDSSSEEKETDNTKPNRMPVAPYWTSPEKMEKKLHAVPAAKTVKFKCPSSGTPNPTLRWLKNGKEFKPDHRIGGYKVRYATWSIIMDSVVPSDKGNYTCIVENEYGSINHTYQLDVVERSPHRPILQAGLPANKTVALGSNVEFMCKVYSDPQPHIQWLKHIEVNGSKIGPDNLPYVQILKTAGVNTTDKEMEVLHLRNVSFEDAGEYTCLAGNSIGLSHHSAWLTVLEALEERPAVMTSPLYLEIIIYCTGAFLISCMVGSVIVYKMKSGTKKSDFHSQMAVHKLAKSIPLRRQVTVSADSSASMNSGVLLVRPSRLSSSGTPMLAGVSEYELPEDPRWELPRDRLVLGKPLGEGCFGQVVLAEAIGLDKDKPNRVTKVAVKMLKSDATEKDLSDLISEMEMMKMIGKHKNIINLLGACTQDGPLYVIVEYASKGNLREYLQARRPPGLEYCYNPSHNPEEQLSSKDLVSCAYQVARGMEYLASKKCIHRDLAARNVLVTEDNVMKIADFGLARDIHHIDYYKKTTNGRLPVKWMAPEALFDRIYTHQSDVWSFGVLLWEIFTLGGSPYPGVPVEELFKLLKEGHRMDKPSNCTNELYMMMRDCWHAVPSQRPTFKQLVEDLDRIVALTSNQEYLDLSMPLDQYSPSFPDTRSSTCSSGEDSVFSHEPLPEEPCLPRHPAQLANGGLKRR", "experiment": "FGFR1 SGC Tm panel (DSF)", "conditions": "Compound concentration 20.0 uM"}, "[11]": {"molecular_target": "Muscarinic acetylcholine receptor M1 (Homo sapiens) (UniProt P11229)", "sequence (P11229 whole entry)": "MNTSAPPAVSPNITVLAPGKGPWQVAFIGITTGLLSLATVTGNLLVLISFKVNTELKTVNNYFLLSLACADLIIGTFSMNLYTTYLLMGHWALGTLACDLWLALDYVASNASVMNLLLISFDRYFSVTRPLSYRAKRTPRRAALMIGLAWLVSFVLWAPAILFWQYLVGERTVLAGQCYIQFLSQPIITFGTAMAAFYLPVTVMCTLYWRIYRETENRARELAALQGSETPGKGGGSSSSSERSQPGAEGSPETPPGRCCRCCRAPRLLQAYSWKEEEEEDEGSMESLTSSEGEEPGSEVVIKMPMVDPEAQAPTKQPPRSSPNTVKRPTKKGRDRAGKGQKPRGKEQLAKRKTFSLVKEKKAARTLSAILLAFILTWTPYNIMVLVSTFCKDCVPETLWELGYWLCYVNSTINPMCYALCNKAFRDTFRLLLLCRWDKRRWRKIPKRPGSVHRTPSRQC", "conditions": "Compound concentration 10.0 uM"}, "[12]": {"molecular_target": "Serine/threonine-protein kinase haspin (Homo sapiens) (UniProt Q8TF76)", "sequence (Q8TF76 whole entry)": "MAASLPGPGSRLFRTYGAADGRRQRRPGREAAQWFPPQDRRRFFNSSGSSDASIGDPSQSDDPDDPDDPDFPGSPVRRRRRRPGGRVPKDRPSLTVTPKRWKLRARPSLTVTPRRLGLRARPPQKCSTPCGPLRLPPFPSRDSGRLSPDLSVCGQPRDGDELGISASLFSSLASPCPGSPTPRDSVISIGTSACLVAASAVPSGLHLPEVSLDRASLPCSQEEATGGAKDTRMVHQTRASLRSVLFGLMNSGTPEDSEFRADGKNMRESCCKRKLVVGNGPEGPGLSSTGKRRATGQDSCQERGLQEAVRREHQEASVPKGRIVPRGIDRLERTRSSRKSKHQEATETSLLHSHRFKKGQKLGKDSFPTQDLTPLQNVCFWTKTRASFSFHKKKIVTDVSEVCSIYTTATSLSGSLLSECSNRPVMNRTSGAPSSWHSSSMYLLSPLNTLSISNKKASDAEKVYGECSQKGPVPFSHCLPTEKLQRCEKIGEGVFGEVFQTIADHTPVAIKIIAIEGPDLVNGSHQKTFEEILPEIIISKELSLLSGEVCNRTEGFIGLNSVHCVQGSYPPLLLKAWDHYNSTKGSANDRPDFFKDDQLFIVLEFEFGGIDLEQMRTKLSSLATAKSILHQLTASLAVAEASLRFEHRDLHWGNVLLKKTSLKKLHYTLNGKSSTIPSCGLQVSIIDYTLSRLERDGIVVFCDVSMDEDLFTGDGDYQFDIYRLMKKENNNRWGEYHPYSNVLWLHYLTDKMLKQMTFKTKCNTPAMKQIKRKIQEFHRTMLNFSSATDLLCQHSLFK", "experiment": "GSG2 SGC Tm panel (DSF)", "conditions": "Compound concentration 20.0 uM"}, "[13]": {"molecular_target": "Mitogen-activated protein kinase 14 (Homo sapiens) (UniProt Q16539)", "sequence (Q16539 whole entry)": "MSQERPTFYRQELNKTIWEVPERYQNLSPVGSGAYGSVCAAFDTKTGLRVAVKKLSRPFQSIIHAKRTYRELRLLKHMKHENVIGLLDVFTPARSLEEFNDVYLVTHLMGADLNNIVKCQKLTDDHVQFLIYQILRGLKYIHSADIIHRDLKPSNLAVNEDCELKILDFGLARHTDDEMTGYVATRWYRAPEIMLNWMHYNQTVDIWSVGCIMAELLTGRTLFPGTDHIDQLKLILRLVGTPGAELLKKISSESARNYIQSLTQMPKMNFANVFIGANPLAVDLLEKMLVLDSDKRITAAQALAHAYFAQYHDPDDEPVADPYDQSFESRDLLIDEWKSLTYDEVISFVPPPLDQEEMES", "experiment": "MAPK14 SGC Tm panel (DSF)", "conditions": "Compound concentration 20.0 uM"}, "[14]": {"molecular_target": "Histamine H2 receptor (Homo sapiens) (UniProt P25021)", "sequence (P25021 whole entry)": "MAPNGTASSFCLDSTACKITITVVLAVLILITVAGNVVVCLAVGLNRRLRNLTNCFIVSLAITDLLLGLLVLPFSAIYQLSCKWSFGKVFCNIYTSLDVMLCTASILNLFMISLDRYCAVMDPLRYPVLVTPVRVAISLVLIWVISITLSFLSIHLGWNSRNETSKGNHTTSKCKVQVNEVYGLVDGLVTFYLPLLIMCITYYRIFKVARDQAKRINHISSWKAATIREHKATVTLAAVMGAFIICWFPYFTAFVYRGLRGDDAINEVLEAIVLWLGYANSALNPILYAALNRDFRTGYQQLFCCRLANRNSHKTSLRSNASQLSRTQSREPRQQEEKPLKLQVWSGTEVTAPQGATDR", "conditions": "Compound concentration 10.0 uM"}}, "data": [{"molecule": "C[C@@H]1CN(c2ncc(Cl)c(Nc3ccc4c(c3)n(CCC(C)(C)O)c(=O)n4C)n2)C[C@H](C)C1(F)F", "values": [{"measurement": "LogFC", "setting": "[1]", "result": -0.022}, {"measurement": "Ki", "setting": "[2]", "result": 2500, "unit": "nM"}, {"measurement": "inhibition", "setting": "[3]", "result": 85.7, "unit": "%"}, {"measurement": "Ki", "setting": "Mu-type opioid receptor; read-out: Ki", "result": 872, "unit": "nM"}, {"measurement": "Ki", "setting": "Mu-type opioid receptor; read-out: pKi (converted)", "result": 851, "unit": "nM"}, {"measurement": "Tm", "setting": "[4]", "result": 44, "unit": "°C"}, {"measurement": "Tm", "setting": "[5]", "result": 43, "unit": "°C"}, {"measurement": "LogFC", "setting": "[6]", "result": 0.0235}, {"measurement": "Tm", "setting": "[7]", "result": 39, "unit": "°C"}, {"measurement": "inhibition", "setting": "[8]", "result": 0.77, "unit": "%"}, {"measurement": "LogFC", "setting": "[9]", "result": 0.103}, {"measurement": "Tm", "setting": "[10]", "result": 50, "unit": "°C"}, {"measurement": "inhibition", "setting": "[11]", "result": 3.3, "unit": "%"}, {"measurement": "Tm", "setting": "[12]", "result": 45, "unit": "°C"}, {"measurement": "Tm", "setting": "[13]", "result": 45, "unit": "°C"}, {"measurement": "inhibition", "setting": "[14]", "result": 43.7, "unit": "%"}]}]}
